The target in experiment [1] is thrombin. Put plainly: Selectivity assay, thrombin inhibition. The experiment is classed as biochemical. As to conditions: duplicates; 5 nM protease; no inhibition observed at 10 µM inhibitor concentration.
Description: (§5) Apparent inhibition constants (Ki ^app) were calculated by fitting the Morrison equation (1) for tight-binding inhibitors to the relative reaction velocity using non-linear regression (Marquardt-Levenberg algorithm, Sigma Plot 11) [63].
Experiment [2] deals with Human matriptase-1. Description: Matriptase-1 inhibition assay (Ki / Ki app). The experiment is classed as biochemical. The note with it: ratio of Ki values of Table 1.
Description: (§6) Human matriptase-1 was produced recombinantly, autocatalytically activated and purified as previously reported [35], [49], [51], [60].
as §5
For experiment [3], the target named is T1, Human matriptase-1 (Homo sapiens, UniProt Q9Y5Y6).
T1 construct: made in house
T1 sequence (Q9Y5Y6 615-855 limits assumed): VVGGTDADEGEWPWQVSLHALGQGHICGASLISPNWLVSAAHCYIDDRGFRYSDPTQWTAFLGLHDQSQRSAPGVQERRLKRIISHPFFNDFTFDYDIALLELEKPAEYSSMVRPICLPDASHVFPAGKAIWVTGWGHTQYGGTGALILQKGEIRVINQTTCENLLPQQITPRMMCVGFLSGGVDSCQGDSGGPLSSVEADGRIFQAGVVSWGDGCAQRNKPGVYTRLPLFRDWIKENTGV
Description: Matriptase-1 inhibition assay (Ki / Ki app). Type of experiment: biochemical. The note with it: substrate-independent Ki from Ki app (Morrison equation) and Km; 250 µM substrate; preincubation 30 min RT; read over 30 min; triplicate; read-out: Ki (Matriptase-1).
Description: as §6, §5

The target in experiment [4] is T2, Bovine pancreatic trypsin (Bos taurus, UniProt P00760).
T2 construct: purchased Sigma-Aldrich
T2 sequence (P00760 24-246): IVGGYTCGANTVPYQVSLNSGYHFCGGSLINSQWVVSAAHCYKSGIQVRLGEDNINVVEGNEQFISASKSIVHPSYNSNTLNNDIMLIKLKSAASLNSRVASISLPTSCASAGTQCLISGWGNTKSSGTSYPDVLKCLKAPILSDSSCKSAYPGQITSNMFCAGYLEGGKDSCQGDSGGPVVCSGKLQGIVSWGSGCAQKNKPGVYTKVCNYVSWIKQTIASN
Description: Trypsin inhibition assay (substrate-independent Ki). The note with it: substrate-independent Ki from Ki app (Morrison equation) and Km; 250 µM substrate; preincubation 30 min RT; read over 30 min; triplicate. The experiment is classed as biochemical.
Description: as §5

The target in experiment [5] is uPA (Homo sapiens, UniProt P00749). Description: biochemical. The method, then: (§1) Human matriptase-1 was produced recombinantly, autocatalytically activated and purified as previously reported, [49], [51], [60]. Bovine pancreatic trypsin, thrombin and uPA were purchased from Sigma-Aldrich and Hepsin from R&D Systems.
(§2) Measurements were carried out in triplicate using a Tecan Genios ELISA reader. The normalized residual proteolytic activity (v/v0) of proteases was determined using substrates Boc-QAR-pNA (250 µM, (pNA stands for para-nitro aniline), Boc-QAR-AMC (250 µM, AMC stands for amino-methyl coumarin) or Spectrozym tPA (250 µM, American Diagnostica, CH3SO2-D-CHT-Gly-Arg-pNA AcOH). Product formation was monitored after preincubation (30 min, RT) with inhibitor at different concentrations over 30 min by measuring the absorbance at 405 nm for pNA substrates or the fluorescence emission for AMC substrates (ex. 360 nm, em. 465 nm), respectively. Selectivity data were carried out in duplicates with final protease concentrations of uPA and thrombin of 5 nM. In case of hepsin 50 mM Tris/HCl pH 9.0 was used as assay buffer.
(§3) Apparent inhibition constants (Ki ^app) were calculated by fitting the Morrison equation (1) for tight-binding inhibitors to the relative reaction velocity using non-linear regression (Marquardt-Levenberg algorithm, Sigma Plot 11). [drawing 1] (1) [drawing 2] (2)
(§4) Substrate-independent inhibition constants Ki were calculated from Ki ^app and Km of the enzyme according to (2). The Michaelis-Menten constant Km for the substrates and proteases were determined previously, [64].

In experiment [6] the target is Hepsin (Homo sapiens, UniProt P05981). Put plainly: biochemical. The method, then: as §1, §2, §3, §4
Chain of Hepsin (P05981 whole entry): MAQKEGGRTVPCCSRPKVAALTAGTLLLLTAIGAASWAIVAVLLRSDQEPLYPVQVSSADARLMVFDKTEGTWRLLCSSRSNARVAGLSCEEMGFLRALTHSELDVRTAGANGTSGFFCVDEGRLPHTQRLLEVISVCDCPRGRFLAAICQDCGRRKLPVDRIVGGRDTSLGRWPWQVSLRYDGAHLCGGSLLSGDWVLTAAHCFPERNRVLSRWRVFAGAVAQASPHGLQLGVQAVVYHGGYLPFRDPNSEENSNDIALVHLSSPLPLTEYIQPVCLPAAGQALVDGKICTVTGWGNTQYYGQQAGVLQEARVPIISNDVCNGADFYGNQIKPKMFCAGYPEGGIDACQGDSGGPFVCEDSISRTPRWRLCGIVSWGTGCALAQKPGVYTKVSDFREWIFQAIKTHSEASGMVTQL
For experiment [7], the system named is uPA activation by matriptase-1 on the surface of PC-3 cells. Description: Cell inhibition assay: uPA activation by matriptase-1 on the surface of PC-3 cells. Type of experiment: cell-based, human. Here is the method: Human prostate cancer cells (PC-3, Merck KGaA) were cultured in DMEM medium with 10% FCS at 37°C and 5% CO2, washed with cation-free PBS and harvested by scraping. 1×10^5 cells were incubated in presence of 250 µM Bz-β-Ala-Gly-Arg-pNA·AcOH (American Diagnostica), which is a specific […] of urokinase, and the inhibitor of interest in defined dilutions overnight. Product formation was monitored at 405 nm before and after incubation in a microplate reader. IC50 was calculated by non-linear regression using SigmaPlot 11.
Urokinase-type plasminogen activator (uPA) causes the degradation of the extracellular matrix and plays a critical role in tumor invasion and metastasis, [73]. It was shown that activation of receptor-bound pro-uPA is affected by matriptase-1, which results in a decreased ability of uPAexpressing tumor cells to invade an extracellular matrix layer upon inhibition of membrane-bound matriptase-1 [72].
For the indirect determination of the IC50 of SOTI Var. 1 and MCoTI Var. 4 on the surface of these cancer cells, the turnover of an uPA substrate was monitored. Pro-uPA is activated through non-inhibited matriptase-1 and substrate turnover was measured and compared to the previously reported small molecule inhibitor S1 of matriptase-1 (Figure 4). In this experimental setting, the MCoTI-based inhibitor Var. […] 4 in this assay.
Figure 4 Inhibition assay of uPA activation by matriptase-1 on the surface of PC-3 cells. Depicted is the logarithmic inhibitor concentration against the absorption at 405 TEXT PRINTED IN THE PICTURE: MCoTI Var.

Like-named read-outs stand apart in the source and are kept apart here. Where a SMILES comes first, the peptide text is derived from it. Bridges are numbered along the chain shown (N, C = ends).

As for `CC[C@H](C)[C@@H]1NC(=O)[C@@H]2CSSC[C@H](NC(=O)[C@@H](NC(=O)CNC(=O)[C@@H](N)Cc3c[nH]c4ccccc34)C(C)C)C(=O)N3CCC[C@H]3C(=O)N[C@@H](CCCCN)C(=O)N[C@@H](C(C)C)C(=O)N[C@@H](CC(C)C)C(=O)N[C@@H](CCCNC(=N)N)C(=O)N[C@@H](CC(N)=O)C(=O)N[C@H]3CSSC[C@H](NC1=O)C(=O)N[C@@H](CC(C)C)C(=O)NCC(=O)N[C@@H](CC(N)=O)C(=O)NCC(=O)N[C@@H](Cc1ccc(O)cc1)C(=O)N[C@H](C(=O)NCC(N)=O)CSSC[C@H](NC(=O)[C@H](CC(=O)O)NC(=O)[C@H](CO)NC(=O)[C@H](CC(=O)O)NC(=O)[C@H](CCCNC(=N)N)NC(=O)[C@H](CCCNC(=N)N)NC3=O)C(=O)N1CCC[C@H]1C(=O)NCC(=O)N[C@@H](C)C(=O)N2` [MCoTI Var. 4] (H-WGVCPKVLRNCRRDSDCPGACICLGNGYCG-NH2; disulfide 4-21, 11-23, 17-29), the Ki in experiment [1] was > 10 µM; in experiment [3] it was 0.00083 ± 0.00014 µM; in experiment [4], 0.0358 ± 0.0047 µM; in experiment [5] it was > 10 µM; in experiment [6] it was > 10 µM; in experiment [6] (read-out: Ki (Hepsin), duplicates, 50 mM Tris/HCl pH 9.0, no inhibition observed at 10 µM inhibitor concentration), > 10 µM. Further, the “inhibitory activity for matriptase-1 relative to trypsin” value in experiment [2] was “approximately fortyfold higher”. Besides, the IC50 in experiment [7] (1×10^5 PC-3 cells, 250 µM Bz-β-Ala-Gly-Arg-pNA, overnight, absorbance 405 nm, read-out: IC50 (uPA substrate turnover on PC-3 cells)) is 0.213 µM. Besides, the “potency relative to recently described peptidomimetic small-molecule inhibitors” value in experiment [7] (PC-3 cells, IC50 comparison (Figure 4)) stood at 10 fold.

The values are drawn from PMC3795654, “Combinatorial Optimization of Cystine-Knot Peptides towards High-Affinity Inhibitors of Human Matriptase-1” (PLoS ONE, 2013).
